Test results taken from the NIST ThermoML archive (doi:10.1021/je1000796).

Experiment: mn = molality of the nth substance listed, in mol/kg
Settings: 101 kPa, Liquid; for viscosity: Capillary tube (Ostwald / Ubbelohde) method

COC(=O)[C@H](c1ccccc1Cl)N1CCc2sccc2C1.O=S(=O)(O)O [(S)-(+)-Clopidogrel hydrogen sulfate] + CCO
Settings	mass density [kg/m3]	viscosity [mPa·s]
278.15 K, m1 = 0.001	801	1.632
278.15 K, m1 = 0.003	801.6	1.638
278.15 K, m1 = 0.005	802.3	1.645
278.15 K, m1 = 0.007	802.9	1.665
278.15 K, m1 = 0.009	803.5	1.671
278.15 K, m1 = 0.011	803.9	1.674
278.15 K, m1 = 0.013	804.5	1.68
278.15 K, m1 = 0.015	805	1.687
283.15 K, m1 = 0.001	798	1.476
283.15 K, m1 = 0.003	798.4	1.484
283.15 K, m1 = 0.005	798.9	1.489
283.15 K, m1 = 0.007	799.3	1.502
283.15 K, m1 = 0.009	799.8	1.505
283.15 K, m1 = 0.011	800.1	1.508
283.15 K, m1 = 0.013	800.6	1.514
283.15 K, m1 = 0.015	800.9	1.523
288.15 K, m1 = 0.001	794.2	1.335
288.15 K, m1 = 0.003	794.5	1.343
288.15 K, m1 = 0.005	794.9	1.346
288.15 K, m1 = 0.007	795.4	1.359
288.15 K, m1 = 0.009	795.9	1.36
288.15 K, m1 = 0.011	796.2	1.361
288.15 K, m1 = 0.013	796.5	1.365
288.15 K, m1 = 0.015	796.8	1.373
293.15 K, m1 = 0.001	790.4	1.211
293.15 K, m1 = 0.003	790.8	1.214
293.15 K, m1 = 0.005	791	1.223
293.15 K, m1 = 0.007	791.4	1.235
293.15 K, m1 = 0.009	791.8	1.236
293.15 K, m1 = 0.011	792.2	1.238
293.15 K, m1 = 0.013	792.8	1.243
293.15 K, m1 = 0.015	793	1.25
298.15 K, m1 = 0.001	786.1	1.101
298.15 K, m1 = 0.003	786.6	1.103
298.15 K, m1 = 0.005	786.9	1.109
298.15 K, m1 = 0.007	787.2	1.12
298.15 K, m1 = 0.009	787.7	1.121
298.15 K, m1 = 0.011	788	1.123
298.15 K, m1 = 0.013	788.4	1.126
298.15 K, m1 = 0.015	788.7	1.131
303.15 K, m1 = 0.001	781.2	0.9985
303.15 K, m1 = 0.003	781.8	1.003
303.15 K, m1 = 0.005	782.1	1.006
303.15 K, m1 = 0.007	782.5	1.012
303.15 K, m1 = 0.009	782.9	1.015
303.15 K, m1 = 0.011	783.2	1.017
303.15 K, m1 = 0.013	783.4	1.019
303.15 K, m1 = 0.015	783.9	1.023
308.15 K, m1 = 0.001	778.2	0.9134
308.15 K, m1 = 0.003	778.5	0.9149
308.15 K, m1 = 0.005	778.7	0.9166
308.15 K, m1 = 0.007	778.9	0.9224
308.15 K, m1 = 0.009	779.1	0.9236
308.15 K, m1 = 0.011	779.4	0.9256
308.15 K, m1 = 0.013	779.8	0.928
308.15 K, m1 = 0.015	780.2	0.9307
313.15 K, m1 = 0.001	773.7	0.8328
313.15 K, m1 = 0.003	773.9	0.8348
313.15 K, m1 = 0.005	774.2	0.8359
313.15 K, m1 = 0.007	774.5	0.8409
313.15 K, m1 = 0.009	774.8	0.8441
313.15 K, m1 = 0.011	775.2	0.8458
313.15 K, m1 = 0.013	775.7	0.8473
313.15 K, m1 = 0.015	776	0.8496

COC(=O)[C@H](c1ccccc1Cl)N1CCc2sccc2C1.O=S(=O)(O)O [(S)-(+)-Clopidogrel hydrogen sulfate] + CO
Settings	mass density [kg/m3]	viscosity [mPa·s]
278.15 K, m1 = 0.001	803.1	0.7441
278.15 K, m1 = 0.003	803.5	0.747
278.15 K, m1 = 0.005	804	0.7487
278.15 K, m1 = 0.007	804.4	0.7505
278.15 K, m1 = 0.009	804.8	0.7525
278.15 K, m1 = 0.011	805.2	0.7529
278.15 K, m1 = 0.013	805.9	0.7577
278.15 K, m1 = 0.015	806.4	0.7582
283.15 K, m1 = 0.001	799.2	0.6924
283.15 K, m1 = 0.003	799.5	0.6943
283.15 K, m1 = 0.005	800.1	0.6961
283.15 K, m1 = 0.007	800.4	0.698
283.15 K, m1 = 0.009	801.1	0.6998
283.15 K, m1 = 0.011	801.5	0.7006
283.15 K, m1 = 0.013	802	0.7039
283.15 K, m1 = 0.015	802.6	0.705
288.15 K, m1 = 0.001	795.4	0.6416
288.15 K, m1 = 0.003	795.8	0.6446
288.15 K, m1 = 0.005	796.2	0.6475
288.15 K, m1 = 0.007	796.4	0.6487
288.15 K, m1 = 0.009	797.1	0.6494
288.15 K, m1 = 0.011	797.5	0.6502
288.15 K, m1 = 0.013	798.2	0.6527
288.15 K, m1 = 0.015	799	0.6538
293.15 K, m1 = 0.001	792.3	0.6006
293.15 K, m1 = 0.003	792.5	0.6022
293.15 K, m1 = 0.005	792.9	0.6042
293.15 K, m1 = 0.007	793.3	0.6049
293.15 K, m1 = 0.009	793.6	0.606
293.15 K, m1 = 0.011	794	0.6077
293.15 K, m1 = 0.013	794.5	0.6096
293.15 K, m1 = 0.015	795.3	0.6111
298.15 K, m1 = 0.001	788.1	0.5596
298.15 K, m1 = 0.003	788.2	0.562
298.15 K, m1 = 0.005	788.4	0.5631
298.15 K, m1 = 0.007	788.7	0.5638
298.15 K, m1 = 0.009	789	0.5652
298.15 K, m1 = 0.011	789.3	0.5661
298.15 K, m1 = 0.013	790	0.5684
298.15 K, m1 = 0.015	790.8	0.5694
303.15 K, m1 = 0.001	784	0.5212
303.15 K, m1 = 0.003	784.1	0.5236
303.15 K, m1 = 0.005	784.3	0.5254
303.15 K, m1 = 0.007	784.5	0.5262
303.15 K, m1 = 0.009	785	0.5269
303.15 K, m1 = 0.011	785.3	0.5276
303.15 K, m1 = 0.013	785.8	0.5304
303.15 K, m1 = 0.015	786.6	0.5315
308.15 K, m1 = 0.001	779.7	0.487
308.15 K, m1 = 0.003	779.8	0.4898
308.15 K, m1 = 0.005	780	0.4901
308.15 K, m1 = 0.007	780.3	0.4906
308.15 K, m1 = 0.009	780.7	0.4919
308.15 K, m1 = 0.011	781.1	0.4936
308.15 K, m1 = 0.013	781.5	0.4943
308.15 K, m1 = 0.015	782.3	0.4967
313.15 K, m1 = 0.001	775.3	0.4567
313.15 K, m1 = 0.003	775.5	0.4589
313.15 K, m1 = 0.005	775.7	0.4595
313.15 K, m1 = 0.007	775.9	0.4601
313.15 K, m1 = 0.009	776	0.4604
313.15 K, m1 = 0.011	776.4	0.462
313.15 K, m1 = 0.013	777	0.4631
313.15 K, m1 = 0.015	777.8	0.4647
